# Experimental data from ChEMBL document CHEMBL1151142, “Triterpenoids and Flavonoids from Hyptis albida” (J Nat Prod, 1990).
# System: Artemia
# Experiment: Toxicity against brine shrimp
# Format: organism-based
# Conditions: in vivo
row,SMILES,LC50 [ppm]
1,CC(=O)O[C@H]1CC[C@]2(C)[C@H]3CC=C4[C@@H]5CC(C)(C)CC[C@]5(C(=O)O)CC[C@@]4(C)[C@]3(C)CC[C@H]2C1(C)C [ACETYL OLEANOLIC ACID],> 700
2,COc1ccc(-c2cc(=O)c3c(O)cc(OC)cc3o2)cc1 [APIGENIN DIMETHYLETHER],> 700
3,CC1(C)CC[C@]2(C(=O)O)CC[C@]3(C)C(=CC[C@@H]4[C@@]5(C)CC[C@H](O)C(C)(C)[C@@H]5CC[C@]43C)[C@@H]2C1 [OLEANOLIC_ACID],> 700
4,C[C@H]1[C@H](C)CC[C@]2(C(=O)O)CC[C@]3(C)C(=CC[C@@H]4[C@@]5(C)CC[C@H](O)C(C)(C)[C@@H]5CC[C@]43C)[C@H]12 [URSOLIC ACID],> 700
5,CC1(C)CC[C@@]23CC[C@]4(C)[C@@](CC[C@@H]5[C@@]6(C)CC[C@H](O)C(C)(C)[C@@H]6CC[C@]54C)(OC2=O)[C@@H]3C1,> 700
6,CC1(C)CC[C@@]23CC[C@]4(C)[C@@](OC2=O)([C@@H]3C1)[C@H]1O[C@H]1[C@@H]1[C@@]2(C)CC[C@H](O)C(C)(C)[C@@H]2CC[C@]14C,> 700
7,COc1ccc(-c2oc3cc(O)cc(O)c3c(=O)c2OC)cc1 [ERMANIN],> 700
8,COc1ccc(-c2cc(=O)c3c(O)c(OC)c(O)c(OC)c3o2)cc1 [NEVADENSIN],> 700
9,C=C(C)[C@@H]1CC[C@]2(C(=O)O)CC[C@]3(C)[C@H](CC[C@@H]4[C@@]5(C)CC[C@H](O)C(C)(C)[C@@H]5CC[C@]43C)[C@@H]12 [BETULINIC ACID],> 700
10,COc1ccc(-c2cc(=O)c3c(O)c(OC)c(OC)c(OC)c3o2)cc1 [GARDENIN B],> 700
11,CC1(C)CC[C@@]23CC[C@]4(C)[C@@](C=C[C@@H]5[C@@]6(C)CC[C@H](O)C(C)(C)[C@@H]6CC[C@]54C)(OC2=O)[C@@H]3C1,> 700
12,COc1ccc(-c2oc3cc(OC)cc(O)c3c(=O)c2OC)cc1,> 700
